According to ChEMBL document CHEMBL2440118, “Triazole-dithiocarbamate based selective lysine specific demethylase 1 (LSD1) inactivators inhibit gastric cancer cell growth, invasion, and migration” (J Med Chem, 2013):
Active and inactive are the calls of the source. No cut-off for these calls is given here.

Experiments:
[1] = molecular target: T1, Amine oxidase [flavin-containing] B (Homo sapiens, UniProt P27338)
T1 sequence (P27338 whole entry): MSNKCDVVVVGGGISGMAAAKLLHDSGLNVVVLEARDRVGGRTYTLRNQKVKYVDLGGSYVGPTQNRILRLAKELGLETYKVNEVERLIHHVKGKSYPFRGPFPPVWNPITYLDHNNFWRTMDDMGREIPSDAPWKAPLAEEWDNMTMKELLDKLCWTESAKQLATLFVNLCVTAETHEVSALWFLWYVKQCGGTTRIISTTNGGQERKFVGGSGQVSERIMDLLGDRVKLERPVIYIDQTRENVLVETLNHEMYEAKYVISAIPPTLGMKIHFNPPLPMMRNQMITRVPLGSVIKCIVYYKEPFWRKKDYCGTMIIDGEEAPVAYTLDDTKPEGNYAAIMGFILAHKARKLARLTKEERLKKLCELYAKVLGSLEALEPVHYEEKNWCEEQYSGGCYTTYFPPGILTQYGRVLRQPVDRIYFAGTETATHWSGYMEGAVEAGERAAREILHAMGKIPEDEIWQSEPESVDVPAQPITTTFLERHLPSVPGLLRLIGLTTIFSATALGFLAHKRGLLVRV

[2] = molecular target: T2, Amine oxidase [flavin-containing] A (Homo sapiens, UniProt P21397)
T2 sequence (P21397 whole entry): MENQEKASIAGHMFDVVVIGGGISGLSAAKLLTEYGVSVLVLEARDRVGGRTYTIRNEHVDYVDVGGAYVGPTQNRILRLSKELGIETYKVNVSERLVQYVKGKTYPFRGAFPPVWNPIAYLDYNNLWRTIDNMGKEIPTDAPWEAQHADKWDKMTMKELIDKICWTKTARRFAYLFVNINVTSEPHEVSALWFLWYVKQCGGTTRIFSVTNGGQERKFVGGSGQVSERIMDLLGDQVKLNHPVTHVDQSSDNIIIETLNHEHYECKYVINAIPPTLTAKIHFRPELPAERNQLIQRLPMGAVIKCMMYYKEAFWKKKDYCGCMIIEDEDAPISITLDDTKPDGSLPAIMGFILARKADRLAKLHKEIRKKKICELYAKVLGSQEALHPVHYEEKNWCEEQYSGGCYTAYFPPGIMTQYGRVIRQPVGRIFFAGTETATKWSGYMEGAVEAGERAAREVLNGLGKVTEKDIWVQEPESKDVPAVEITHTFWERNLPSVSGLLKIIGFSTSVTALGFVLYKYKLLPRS

[3] = molecular target: Lysine-specific histone demethylase 1A (Homo sapiens) (UniProt O60341); settings: 0.5 to […]
[4] = molecular target: Lysine-specific histone demethylase 1A (Homo sapiens) (UniProt O60341); assay: Inhibition of LSD1-snail interaction in human MGC803 cells at 0.25 uM after 48 hrs by immunoprecipitation assay; format: cell-based; settings: MGC-803
[5] = molecular target: Lysine-specific histone demethylase 1A (Homo sapiens) (UniProt O60341); assay: Inhibition of LSD1 in human MGC803 cells assessed as elevation of E-cadherin protein expression at 0.02 to 1 uM after 48 hrs by Western blotting analysis relative to control; format: cell-based; settings: MGC-803
[6] = molecular target: Lysine-specific histone demethylase 1A (Homo sapiens) (UniProt O60341)
[7] = molecular target: Lysine-specific histone demethylase 1A (Homo sapiens) (UniProt O60341); settings: 0.5 to […]; remark: listed apart in the source
[8] = molecular target: Lysine-specific histone demethylase 1A (Homo sapiens) (UniProt O60341); settings: 0.5 to […]; remark: listed apart in the source
[9] = molecular target: Lysine-specific histone demethylase 1A (Homo sapiens) (UniProt O60341); remark: listed apart in the source
[10] = molecular target: Lysine-specific histone demethylase 1A (Homo sapiens) (UniProt O60341); settings: 312.5 uM

CC(C)(C)OC(=O)N1CCN(C(=S)SCc2cn(Cc3ccccc3F)nn2)CC1
IC50 [1]: 791 µM
IC50 [2]: > 1250 µM

Cc1ccc(Cn2cc(CSC(=S)N3CCN(C(=O)OC(C)(C)C)CC3)nn2)cc1
inhibition [3]: Active
inhibition [4]: Active
inhibition [5]: Active
inhibition [6]: Active
inhibition [7]: Active
inhibition [8]: Active
inhibition [9]: Active
inhibition [10]: Active
IC50 [1]: > 1250 µM
IC50 [2]: > 1250 µM
